Test results from ChEMBL document CHEMBL1132666, “Significant compensatory role of position Y-2 conferring high affinity to non-phosphorylated inhibitors of Grb2-SH2 domain” (Bioorg Med Chem Lett, 1999).

These molecules were tested against Growth factor receptor-bound protein 2 (Homo sapiens, UniProt P62993) (assay: Inhibitory activity against Growth factor receptor bound protein 2).
Chain of Growth factor receptor-bound protein 2 (P62993 whole entry): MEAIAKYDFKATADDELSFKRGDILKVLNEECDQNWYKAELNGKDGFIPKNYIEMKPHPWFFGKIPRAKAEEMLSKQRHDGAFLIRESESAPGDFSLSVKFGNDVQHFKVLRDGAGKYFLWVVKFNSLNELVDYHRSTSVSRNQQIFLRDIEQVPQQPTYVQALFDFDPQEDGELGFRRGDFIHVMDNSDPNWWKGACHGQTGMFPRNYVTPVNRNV

| Compound | IC50 [µM] |
| --- | --- |
| CSCC[C@H]1NC(=O)CNC(=O)[C@@H](C(C)C)NC(=O)[C@@H](CC(N)=O)NC(=O)[C@@H](CCC(=O)O)NC(=O)[C@@H](Cc2ccc(O)cc2)NC(=O)[C@@H](CC(C)C)NC(=O)[C@@H](CCC(=O)O)NC(=O)CSC[C@H](C(N)=O)NC(=O)[C@@H](Cc2ccc(O)cc2)NC1=O | 20 |
| CSCC[C@H]1NC(=O)CNC(=O)[C@@H](C(C)C)NC(=O)[C@@H](CC(N)=O)NC(=O)[C@@H](CCC(=O)O)NC(=O)[C@@H](Cc2ccc(O)cc2)NC(=O)[C@@H](CC(C)C)NC(=O)[C@@H](C)NC(=O)CSC[C@H](C(N)=O)NC(=O)[C@@H](Cc2ccc(O)cc2)NC1=O | 100 |
| CSCC[C@H]1NC(=O)CNC(=O)[C@@H](C(C)C)NC(=O)[C@@H](CC(N)=O)NC(=O)[C@@H](CCC(=O)O)NC(=O)[C@@H](Cc2ccc(O)cc2)NC(=O)[C@@H](CC(C)C)NC(=O)[C@@H](C)NC(=O)CSC[C@H](C(N)=O)NC(=O)[C@@H](Cc2ccc(OP(=O)(O)O)cc2)NC1=O | 0.023 |
| CSCC[C@H]1NC(=O)CNC(=O)[C@@H](C(C)C)NC(=O)[C@@H](CC(N)=O)NC(=O)[C@@H](CCC(=O)O)NC(=O)[C@@H](Cc2ccc(O)cc2)NC(=O)[C@@H](CC(C)C)NC(=O)[C@@H](CCC(=O)O)NC(=O)CSC[C@H](C(N)=O)NC(=O)[C@@H](Cc2ccc(OP(=O)(O)O)cc2)NC1=O | 0.13 |
| CSCC[C@H]1NC(=O)CNC(=O)[C@@H](C(C)C)NC(=O)[C@@H](CC(N)=O)NC(=O)[C@@H](CCC(=O)O)NC(=O)[C@@H](Cc2ccc(O)cc2)NC(=O)[C@@H](CC(C)C)NC(=O)[C@@H](CC(C(=O)O)C(=O)O)NC(=O)CSC[C@H](C(N)=O)NC(=O)[C@@H](Cc2ccc(O)cc2)NC1=O | 0.64 |
| CSCC[C@H]1NC(=O)CNC(=O)[C@@H](C(C)C)NC(=O)[C@@H](CC(N)=O)NC(=O)[C@@H](CCC(=O)O)NC(=O)[C@@H](Cc2ccc(O)cc2)NC(=O)[C@@H](CC(C)C)NC(=O)[C@@H](CCCC(=O)O)NC(=O)CSC[C@H](C(N)=O)NC(=O)[C@@H](Cc2ccc(O)cc2)NC1=O | 3.45 |
| CSCC[C@H]1NC(=O)CNC(=O)[C@@H](C(C)C)NC(=O)[C@@H](CC(N)=O)NC(=O)[C@@H](CCC(=O)O)NC(=O)[C@@H](Cc2ccc(O)cc2)NC(=O)[C@@H](CC(C)C)NC(=O)[C@@H](Cc2ccc(OP(=O)(O)O)cc2)NC(=O)CSC[C@H](C(N)=O)NC(=O)[C@@H](Cc2ccc(O)cc2)NC1=O | 27.5 |
| CSCC[C@H]1NC(=O)CNC(=O)[C@@H](C(C)C)NC(=O)[C@@H](CC(N)=O)NC(=O)[C@@H](CCC(=O)O)NC(=O)[C@@H](Cc2ccc(O)cc2)NC(=O)[C@@H](CC(C)C)NC(=O)[C@@H](Cc2ccc(OC(C(=O)O)C(=O)O)cc2)NC(=O)CSC[C@H](C(N)=O)NC(=O)[C@@H](Cc2ccc(O)cc2)NC1=O | 64.5 |
